System: E7 peptide-pulsed EL4 cells
Test: Cytotoxic lymphocyte (4-hour 51Cr-release) assay on spleen cells of immunized mice
Type: in vivo, C57BL/6 mice
Details: C57BL/6 (B6) (H-2b) mice
Protocol: A peptide antigen formulation for use within the present example was prepared in an emulsion by a two-syringe system containing 1:1 incomplete Freund's Adjuvant with 100 μg HPV16 E7 peptide (49-57), 20 μg PCLUS-6.1 helper epitope (see, U.S. Pat. No. 5,939,074; U.S. Pat. No. 5,976,541; U.S. Pat. No. 5,030,449; U.S. Pat. No. 5,081,226; U.S. Pat. No. 5,932,218; U.S. patent application Ser. No. 08/060988, filed May 14, 1993, corresponding to EP 0 710 572 Bi; WO 94/26785; and
U.S. patent application Ser. No. 09/455,076, each incorporated herein by reference), 50,000 U IL-2, 10X PBS and double distilled water. The B7-1 expressing DNA plasmid (400 μg) was prepared in 100 μl water. […]
Procedures to measure CTL activity are well known and are described elsewhere (see, e.g. Chen et al., Cell 71:1093-1102, 1992). […] Supernatants were harvested and counted using a gamma counter. The percentage of specific 51 Cr-release was calculated as follows: 100 X (experimental release−spontaneous release)/(maximum release−spontaneous release). Spontaneous release was determined from target cells incubated without effector cells; maximum release was determined from target cells incubated in the presence of 1% Triton X-100.

With “HPV16 E7 peptide(49-57): H2Db binding antigenic peptide of human papilloma virus 16 E7 protein, residues 49-57 (RAHYNIVTF; UniProt P03129 49-57, looked up, fragment)” the “Immunogenicity of the peptide (in words)” value was “immunogenic”.

From patent publication US20020044948A1, “Methods and compositions for co-stimulation of immunological responses to peptide antigens” (priority 2000, published 2002)
